Where no end group is shown, it is not given here.
Columns and labels:
[1] = test system: RINm cells; assay: Insulin secretion in RINm cells; assay type: cell-based; conditions: peptides 0-5 nM; mimetibodies 5 or 50 nM
Method: GLP-1 mimetibody causes insulin secretion in RINm cells. To test the effect of GLP-1 mimetibody in insulin secretion, RINm cells were treated with increasing concentrations of GLP-1 (7-36) peptide (0-5 nM) (FIG. 6A), exendin-4 peptide (0-5 nM) (FIG. 6A), or various GLP-1 mimetibodies (5 or 50 nM) and the amount of insulin secreted was measured via ELISA. All GLP-1 mimetibodys tested had activities in stimulating insulin secretion in RINm cells.

[2] = test system: db/db mice; assay: Fasting blood glucose in db/db mice; assay type: in vivo
Method: GLP-1 mimetibody lowers glucose level in db/db mice. […] Blood glucose was monitored 0.5, 1, 2, 3, and 4 hours post-dosing. […] In addition, consistent with the mechanism of action for GLP-1, the maximum glucose lowering effect achieved at 0.19 nmol was not enhanced by a higher dose of the GLP-1 mimetibody (1.9 nmol). The maximum glucose lowering effect maintained blood glucose values within the normal range.

[3] = test system: control HEK293 cells; assay: FACS binding assay, control HEK293 cells; conditions: 20 nM, 2 hours at 4° C.
[4] = target: T1, DPP-IV (Homo sapiens, UniProt P27487); assay: DPP-IV cleavage assay; assay type: in vitro ADME; conditions: 1.2 nM, DPP-IV 1 μg/mL, room temperature, 0-40 minutes
T1 construct: purchased R&D Systems
T1 sequence (P27487 whole entry, species assumed): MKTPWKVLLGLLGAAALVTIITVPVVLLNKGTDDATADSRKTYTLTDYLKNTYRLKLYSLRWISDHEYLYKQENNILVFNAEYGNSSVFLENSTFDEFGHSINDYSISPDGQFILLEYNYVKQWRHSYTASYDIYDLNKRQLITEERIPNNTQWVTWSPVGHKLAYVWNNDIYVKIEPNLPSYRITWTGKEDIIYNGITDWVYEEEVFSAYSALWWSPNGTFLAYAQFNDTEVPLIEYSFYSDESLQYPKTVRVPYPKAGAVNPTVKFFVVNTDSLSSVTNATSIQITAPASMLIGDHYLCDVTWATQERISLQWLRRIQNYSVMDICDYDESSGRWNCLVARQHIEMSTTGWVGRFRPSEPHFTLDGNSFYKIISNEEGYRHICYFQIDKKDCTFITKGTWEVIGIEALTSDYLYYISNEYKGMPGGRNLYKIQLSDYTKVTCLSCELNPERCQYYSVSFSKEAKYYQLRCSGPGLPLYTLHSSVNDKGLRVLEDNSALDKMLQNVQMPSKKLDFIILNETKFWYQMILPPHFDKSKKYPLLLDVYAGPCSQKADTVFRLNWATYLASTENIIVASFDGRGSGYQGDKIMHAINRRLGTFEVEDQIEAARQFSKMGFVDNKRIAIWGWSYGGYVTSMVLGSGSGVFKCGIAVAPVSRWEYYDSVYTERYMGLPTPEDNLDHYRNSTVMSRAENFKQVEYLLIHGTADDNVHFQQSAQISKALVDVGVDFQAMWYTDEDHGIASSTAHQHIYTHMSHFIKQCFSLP
Method: DPP-IV cleavage assay. Since GLP-1 is rapidly inactivated by DPP-IV, an in vitro assay was established to quantitate intact (i.e. uncleaved) GLP-1 mimetibody. Briefly, GLP-1 mimetibody or peptide (1.2 nM) was incubated at room temperature with DPP-IV (1 μg/mL, R&D Systems). After various times (0, 5, 10, 15, 20, 30, 40 minutes), a DPP-IV inhibitor (100 μM, Linco) was added to quench the reaction. The amount of intact GLP-1 mimetibody or peptide was measured using the GLP-1 Active ELISA (Linco) and the GLP-1 mimetibody or peptides for the respective standard curves.

[5] = Human serum stability assay; assay type: in vitro ADME; conditions: 30 nM, 37° C.
Method: Human Serum stability assay. The stability of the GLP-1 mimetibody in serum was also measured to ensure that other serum proteases were not able to cleave and inactivate the GLP-1 mimetibody. Briefly, GLP1 peptide or the GLP1 mimetibody (30 nM) was incubated in human serum at 37° C. After various times, samples were evaluated to determine the amount of intact peptide or mimetibody. The reactions were quenched with a DPP-IV inhibitor (100 μM, Linco), and the samples were analyzed using the GLP-1 Active ELISA from Linco.

[6] = target: T2, GLP-1R (Homo sapiens, UniProt P43220); assay: FACS binding assay, HEK293 cells over-expressing GLP-1R; conditions: 20 nM, 2 hours at 4° C.
T2 construct: expressed in transfected cells; host or cells: HEK293
T2 sequence (P43220 24-463, species assumed): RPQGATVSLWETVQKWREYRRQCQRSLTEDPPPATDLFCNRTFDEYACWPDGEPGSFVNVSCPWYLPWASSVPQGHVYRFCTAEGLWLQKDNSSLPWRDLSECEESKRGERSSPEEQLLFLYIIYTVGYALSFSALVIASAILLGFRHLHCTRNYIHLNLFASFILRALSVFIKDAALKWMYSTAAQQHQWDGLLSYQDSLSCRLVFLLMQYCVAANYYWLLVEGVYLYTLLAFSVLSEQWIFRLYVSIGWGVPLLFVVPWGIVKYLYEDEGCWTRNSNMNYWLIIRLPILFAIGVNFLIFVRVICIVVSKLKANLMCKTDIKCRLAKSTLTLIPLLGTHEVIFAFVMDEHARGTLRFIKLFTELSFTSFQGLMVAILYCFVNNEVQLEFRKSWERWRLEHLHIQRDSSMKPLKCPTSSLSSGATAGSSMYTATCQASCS
Method: FACS Binding Assay. The activity of GLP-1 mimetibody was tested in an in vitro FACS binding assay. To determine whether the GLP-1 mimetibody binds GLP-1R, HEK293 cells (1×10^6 cells) over-expressing GLP-1R were incubated with GLP-1 mimetibody (20 nM) for 2 hours at 4° C. The cells were washed, and a fluorescently labeled secondary detection antibody (1 μg/mL goat anti-human IgG, Fc gamma specific) was added for 30 minutes at 4° C. The fluorescence intensity of the cells was monitored via flow cytometry.

[7] = administered subcutaneously; cited from earlier work

Substance: GLP-1 (7-36) peptide: wild-type GLP-1 (7-36) peptide (HAEGTFTSDVSSYLEGQAAKEFIAWLVKGR; ends and bridges not checked; UniProt P01275 98-127, looked up, fragment)
- stimulation of insulin secretion in RINm cells [1]: stimulates insulin release in RINm cells

Substance: exendin-4 peptide: exendin-4 peptide, positive control
- stimulation of insulin secretion in RINm cells [1]: stimulates insulin release in RINm cells

Substance: GLP-1 peptide: GLP-1 peptide used as comparator [reference compound]
- blood glucose over 4 hours post-dosing ([2]; db/db mice fasted two hours, intravenous, mimetibody dose 100-fold lower than peptide dose): lowered blood glucose at 30 minutes, but by 60 minutes, the blood glucose began to increase again

Substance: GLP-1 mimetibody: GLP-1 peptide (7-36), Gly-Ser linker, J region, IgG1 hinge, CH2 and CH3 construct (SEQ ID NO:2)
- lowering of fasting blood glucose compared to control animals ([2]; doses ranging from 0.019 to 1.9 nmol): effective in lowering the fasting blood glucose
- dose at which maximum glucose lowering effect was achieved ([2]; not enhanced by 1.9 nmol): 0.19 nmol
- binding to control HEK293 cells (FACS) [3]: not to control HEK293 cells
- resistance to cleavage by DPP-IV relative to the GLP-1 peptide [4]: significantly more resistant to cleavage by DPP-IV
- remained intact in human serum after 24 hours [5]: > 90%
- binding to HEK293 cells over-expressing GLP-1R (FACS) [6]: binds to HEK293 cells over-expressing GLP-1R

Substance: GLP-1 (7-36) amide: GLP-1 (7-36) amide
- time action [7]: about 50 minutes
